Measurements published in PubChem BioAssay (NCI).
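Interpolation was linear, between the two tested concentrations surrounding the appropriate level; five concentrations were tested over 48 hours in 96-well plates. GI50 is the concentration that inhibits growth by half. Definition used: TGI = concentration required for complete inhibition of growth.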

Columns and labels:
Assay in all cases: NCI tumour cell line growth inhibition, 48 h
[1] = test system: CCRF-CEM leukemia
[2] = test system: COLO 205 colon
[3] = test system: K-562 leukemia
[4] = test system: LOX IMVI melanoma
[5] = test system: NCI-H226 lung
[6] = test system: RXF 393 renal
[7] = test system: SNB-19 CNS
[8] = test system: SNB-75 CNS
[9] = test system: UACC-257 melanoma
[10] = test system: UACC-62 melanoma

Compound	GI50 [1] [µM]	TGI [1] [µM]	GI50 [2] [µM]	TGI [2] [µM]	GI50 [3] [µM]	TGI [3] [µM]	GI50 [4] [µM]	TGI [4] [µM]	GI50 [5] [µM]	TGI [5] [µM]	GI50 [6] [µM]	TGI [6] [µM]	GI50 [7] [µM]	TGI [7] [µM]	GI50 [8] [µM]	TGI [8] [µM]	GI50 [9] [µM]	TGI [9] [µM]	GI50 [10] [µM]	TGI [10] [µM]
COc1cc2ncn(-c3cc(OCCc4ccccc4)c(C(N)=O)s3)c2cc1OC	8.5	> 25	24.4	> 25	> 25	> 25	> 25	> 25	> 25	> 25	9.53	> 25	> 25	> 25	> 25	> 25	> 25	> 25	> 25	> 25
CC(=O)c1sc(-c2nc(C)c(C(=O)/C=C\c3ccc(/C=C\C(=O)c4sc(-c5nc(C)c(C(C)=O)s5)nc4C)cc3)s2)nc1C		> 100		> 100		> 100		> 100		> 100		> 100		> 100				> 100		> 100
COc1ccc(-c2c[nH]c(=S)n2-c2ccc(OC)cc2)cc1			> 50	> 50	> 50	> 50	> 50	> 50	> 50	> 50	> 50	> 50	> 50	> 50	> 50	> 50	> 50	> 50	> 50	> 50
CC(C)(C=O)CC(C#N)/C(=N\NC(N)=O)C(=O)Nc1ccccc1C(N)=O (stereo not given)		> 100				> 100		> 100		> 100				> 100				> 100		> 100
Cc1ccc(S(=O)(=O)NCCNc2nccc(-c3c(-c4ccc(F)cc4)nc4sccn34)n2)cc1							4.86	> 100	5.14	97.3	4.02	29.4	9.41	48.4	2.65	15			3.95	> 100
NC(N)=NCCCCCNc1noc(Cc2c[nH]c3cc(Br)ccc23)n1	13.9	39.5	9.77	28.2	9.4	38.6	10.6	45.2	13.6	46.9	20.2	> 100	3.62	20.4			14.6	80.3	7.48	28.1
COc1ccc(-c2ccc(/C=N/n3c(C)n[nH]c3=S)o2)c([N+](=O)[O-])c1	> 100	> 100	> 100	> 100	> 100	> 100					32.8	> 100	> 100	> 100					> 100	> 100
COc1ccc(Nc2c3ccccc3nc3occ(Cl)c23)cc1	0.0199	0.416	< 0.01	4.89	< 0.01	> 35.1			25.1	> 100			0.48	> 38.2	0.0908	> 100	0.0159	13.3	0.0104	42.4
Cc1cc2c(cc1Cl)SC(=Nc1ccc(Cl)cc1)N(S(=O)(=O)c1ccccc1)S2(=O)=O	4.92	27.4	2.89	> 100	9.19	58.2	1.58	7.18	11.5	35.4	17.2	48.2	20.6	> 100			17.4	34.9	11.6	23.8
COc1ccc(-c2oc3cc(O)c(OC)c(O)c3c(=O)c2OC)cc1O	0.343	> 100	5.85	28.8	0.0436	> 100	0.0766	> 100	2.5	> 100	0.171	> 100	0.189	> 100			> 100	> 100	0.311	> 100
COc1cc(C)c2c(c1C)OC(=O)c1c(C)c(Cl)c(O)c(C=O)c1O2		47.3		76.7		45.6		42.8		87.6				> 100		46.8		61.5		43.6
COc1cc2c(cc1O)C1Cc3ccc(OC)c(O)c3C(C2)N1C (stereo not given)		> 100		> 100				> 100		> 100		> 100		> 100				> 100		> 100
O=C(COc1ccc(/C=C2\CSc3ccccc3C2=O)cc1)Nc1nccs1	2.01	9.09	14.1	27.1	3.11	> 100	1.77	3.41	15.6	32.5			13.4	26.2	11.5	25.1	12.6	25.1	5.32	19
COc1ccc2c(c1)[C@@]13CCCC[C@H]1[C@@H](C2)N(C)CC3=O		73.6		31.2		> 100		30.9		57.9		29.1		> 100				30.5		32.7
N#CC(=NCCO)C1=C(O)c2ccccc2C1=O				> 100		> 100		> 100		> 100		> 100		> 100		> 100		> 100		> 100
Cc1cc(NS(=O)(=O)c2ccc(Nc3c4ccccc4nc4c(C(=O)NCCN(C)C)cccc34)cc2)no1		11.1		> 100		> 100		31.3		2.92		22.8		13		21				14.4
